Entries after “also recorded” stand apart in the source; their conditions may differ.
What was measured:
[1] = system: macrophages presenting Ag85b derived epitopes; format: cell-based, C57BL/6 mice
[2] = system: p21-35 (SEQ ID NO:3)-specific CD4+ T cell clone; assay: Proliferation of Der p2 p21-35-specific CD4+ T cell clone with peptide-loaded antigen-presenting cells (3H-thymidine incorporation); format: cell-based, BALB/c mice; settings: peptide 0.1 μM loaded on T cell-depleted mitomycin C-treated splenocytes; compared with p21-35 wildtype sequence (SEQ ID NO:3); 48 h + 18 h 3H-thymidine
CD4+ T cells = assay: Proliferation of CD4+ T cells stimulated with ALK peptide-loaded dendritic cells (tritiated thymidine incorporation); format: cell-based, C57BL/6 mice; settings: four cycles of stimulation with 20 μg peptide; restimulation with 1 μM or 10 μM peptide of SEQ ID NO:14; compared with stimulation by SEQ ID NO:14
[3] = system: B cells expressing the BO2C11 BCR; assay: FACS for BO2C11 BCR on circulating, splenic and bone marrow B cells of immunized mice; format: in vivo
Description: A mouse strain was created which expresses the BO2C11 molecule as a B cell receptor. […] Mice were then bled and tested for the presence of antibodies recognizing the peptide of SEQ ID NO:10 and the BO2C11 antibody, as assess by direct binding ELISA. […] Furthermore, the presence of the BO2C11 BCR on circulating, splenic and bone marrow B cells was evaluated by FACS using an anti-human Fc-gamma antibody.

[4] = Direct binding ELISA of antibodies in blood of immunized BO2C11 BCR mice; format: in vivo; settings: mice immunized with 50 μg peptide on alum on 4 occasions at 10-day intervals
Text: (§1) A mouse strain was created which expresses the BO2C11 molecule as a B cell receptor. […] Mice were then bled and tested for the presence of antibodies recognizing the peptide of SEQ ID NO:10 and the BO2C11 antibody, as assess by direct binding ELISA.

BO2C11 antibody = assay: as above; format: in vivo; settings: mice immunized with 50 μg peptide on alum on 4 occasions at 10-day intervals
Text: as §1

G121 CD4+ T cell clone = assay: FACS detection of CFSE-labeled G121 CD4+ T cell clone in immunized mice; format: in vivo, BALB/c mice; settings: one day after i.v. injection of 200,000 cells per mouse in immunized mice
G121 TCR = assay: FACS detection of serum antibodies to G121 TCR in immunized mice; format: in vivo, BALB/c mice; settings: G121 cells incubated with serum dilution, then FITC-labeled anti-mouse Fcgamma antibody
[5] = system: ALK-specific CD4+ T cells; assay: Activation of ALK-specific CD4+ T cells
[6] = system: NPM-ALK tumor cells (R80 NPM-ALK cells, H-2b-restricted); assay: Growth of NPM-ALK tumor in mice preimmunized with peptide on alum; format: in vivo, C57BL/6 mice; settings: 50 μg peptide on alum, 4 times at 10-day intervals, before s.c. inoculation of 2×10^6 tumor cells; difference at day 20 p<0.008 (Mann-Whitney U test)

With CSWE YWGAQLNAM [SEQ ID NO:7] the “macrophage lysis (51Cr release)” value [1] was “significant degree of macrophage lysis”.

In the case of “AHGSEPCIIHRGKPF (Der p2 amino acids 21-35 with mutation c21A) [SEQ ID NO:4, p21-35 peptide with cysteine in P(-4) substituted by alanine]”, the “reduction of the proliferative response of the specific T cell clone” value [2] is reported as 70%.

With “CGG WTGPGAGPR (CGGWTGPGAGPR; amino acids 1544-1555 of ALK protein preceded by cysteine) [SEQ ID NO:15, ALK peptide with a single cysteine added at position 1544]” the “proliferation rate of CD4+ T cells (incorporation of tritiated thymidine)” value (CD4+ T cells) was “significantly increased”.

With “CAVY YCAVPDPDA FDI (CAVYYCAVPDPDAFDI; amino acids 111-125 of VH of human anti-factor VIII antibody BO2C11 preceded by cyteine) [SEQ ID NO:11]” the “B cells expressing the transgenic BCR in circulation, spleen or bone marrow (FACS, anti-human Fc-gamma antibody)” value [3] was “no B cells expressing the transgenic BCR”, the “antibodies to the peptide of SEQ ID 10 (direct binding ELISA)” value [4] was “High concentrations of antibodies” and the “antibodies to the BO2C11 antibody (direct binding ELISA)” value (BO2C11 antibody) was “High concentrations of antibodies”.

For “YWGAQLNAM [SEQ ID NO:6, reference compound]”, the “macrophage lysis (51Cr release)” value [1] was “not”.

In the case of “CQTA VYFCASSER TGG (CQTAVYFCASSERTGG; amino acids 103-117 of VH of anti-Der p2 CD4+ T-cell clone G121 preceded by cysteine) [SEQ ID NO:13]”, the “residual CFSE-labeled G121 cells in peripheral blood or spleen (FACS)” value (G121 CD4+ T cell clone) is reported as “no residual G121 cells” and the “antibodies to G121 TCR in serum of immunized mice (FACS)” value (G121 TCR) is reported as “contains antibodies to G121 TCR”.

In the case of “YCTQDPDVINTA (ALK-epitope) [SEQ ID NO:5]”, the “activation of ALK-specific (class II-restricted) CD4+ T cells” value [5] is reported as “boost the activation; also recorded: increased activation properties” and the “tumor growth in preimmunized mice versus control group not preimmunized” value [6] is reported as “very much reduced”.

From patent US10899795B2, “Modified epitopes for boosting CD4+ T-cell responses” (Katholieke Universiteit Leuven, priority 2012, dated 2021)
